Experimental data reported in patent US20100061928A1, “LABELLED ANALOGUES OF HALOBENZAMIDES AS RADIOPHARMACEUTICALS” (Institut National De La Sante et De La Recherche Medicale …, priority 2006, published 2010).
Where a name gives a salt, the structure may show the parent alone.

What was measured:
[1] = test system: grafted B16 F0 murine melanoma tumour; assay: Biodistribution of the ^125I-labelled molecules in the melanoma-bearing mouse (autoradiography of whole-body sections); conditions: ^125I-labelled compound
tumour = assay: Dosimetry with regard to the tumour (MIRD programme, extrapolated to ^131I); conditions: for Effective period: extrapolated to 131I labelling; for Biological period: from biodistribution data
[2] = Elimination of the molecules: cumulative urinary and faecal excretion 0-72 hours; assay type: in vivo, mouse; conditions: for Faecal elimination 0-72 hours (Faeces) / Urinary and faecal elimination 0-72 hours (Total) / Urinary elimination 0-72 hours (Urine): cumulative excretion 0-72 hours; for Faecal elimination 0-72 hours (Faeces) / Urinary elimination 0-72 hours (Urine): mice in metabolic cages; for Urinary and faecal elimination 0-72 hours (Total): urine + faeces

CCN(CC)CCNC(=O)c1ccc2cc(I)ccc2c1 [compound 3, N-(2-diethylaminoethyl)-6-iodo-2-naphthamide hydrochloride]
Concentration of radioactivity, B 16 (tumour), Mean ([1]; 1 H after i.v. administration): 12.99 % ID/g | Concentration of radioactivity, Ic (intestinal contents), Mean ([1]; 1 H after i.v. administration): 7.82 % ID/g | Concentration of radioactivity, Sc (stomach contents), Mean ([1]; 1 H after i.v. administration): 27.82 % ID/g | Concentration of radioactivity, blood (measured in the heart cavity), Mean ([1]; 1 H after i.v. administration): 2.97 % ID/g | Concentration of radioactivity, brain, Mean ([1]; 1 H after i.v. administration): 4.37 % ID/g | Concentration of radioactivity, kidney, Mean ([1]; 1 H after i.v. administration): 13.30 % ID/g | Concentration of radioactivity, liver, Mean ([1]; 1 H after i.v. administration): 9.46 % ID/g | Concentration of radioactivity, lungs, Mean ([1]; 1 H after i.v. administration): 11.82 % ID/g | Concentration of radioactivity, muscle (skeletal muscle), Mean ([1]; 1 H after i.v. administration): 1.92 % ID/g | Concentration of radioactivity, pancreas, Mean ([1]; 1 H after i.v. administration): 10.18 % ID/g | Concentration of radioactivity, spleen, Mean ([1]; 1 H after i.v. administration): 9.70 % ID/g | Concentration of radioactivity, uvea (pigmented tissues of the eye), Mean ([1]; 1 H after i.v. administration): 13.21 % ID/g | Concentration of radioactivity, B 16 (tumour), Mean ([1]; 3 H after i.v. administration): 11.38 % ID/g | Concentration of radioactivity, Ic (intestinal contents), Mean ([1]; 3 H after i.v. administration): 25.85 % ID/g | Concentration of radioactivity, Sc (stomach contents), Mean ([1]; 3 H after i.v. administration): 24.69 % ID/g | Concentration of radioactivity, blood (measured in the heart cavity), Mean ([1]; 3 H after i.v. administration): 1.77 % ID/g | Concentration of radioactivity, brain, Mean ([1]; 3 H after i.v. administration): 0.78 % ID/g | Concentration of radioactivity, kidney, Mean ([1]; 3 H after i.v. administration): 5.65 % ID/g | Concentration of radioactivity, liver, Mean ([1]; 3 H after i.v. administration): 4.75 % ID/g | Concentration of radioactivity, lungs, Mean ([1]; 3 H after i.v. administration): 4.43 % ID/g | Concentration of radioactivity, muscle (skeletal muscle), Mean ([1]; 3 H after i.v. administration): 0.83 % ID/g | Concentration of radioactivity, pancreas, Mean ([1]; 3 H after i.v. administration): 8.19 % ID/g | Concentration of radioactivity, spleen, Mean ([1]; 3 H after i.v. administration): 2.59 % ID/g | Concentration of radioactivity, uvea (pigmented tissues of the eye), Mean ([1]; 3 H after i.v. administration): 13.90 % ID/g | Concentration of radioactivity, B 16 (tumour), Mean ([1]; 6 H after i.v. administration): 8.95 % ID/g | Concentration of radioactivity, Ic (intestinal contents), Mean ([1]; 6 H after i.v. administration): 18.72 % ID/g | Concentration of radioactivity, Sc (stomach contents), Mean ([1]; 6 H after i.v. administration): 10.79 % ID/g | Concentration of radioactivity, blood (measured in the heart cavity), Mean ([1]; 6 H after i.v. administration): 1.74 % ID/g | Concentration of radioactivity, brain, Mean ([1]; 6 H after i.v. administration): 0.25 % ID/g | Concentration of radioactivity, kidney, Mean ([1]; 6 H after i.v. administration): 3.07 % ID/g | Concentration of radioactivity, liver, Mean ([1]; 6 H after i.v. administration): 2.73 % ID/g | Concentration of radioactivity, lungs, Mean ([1]; 6 H after i.v. administration): 2.12 % ID/g | Concentration of radioactivity, muscle (skeletal muscle), Mean ([1]; 6 H after i.v. administration): 0.38 % ID/g | Concentration of radioactivity, spleen, Mean ([1]; 6 H after i.v. administration): 8.05 % ID/g | Concentration of radioactivity, uvea (pigmented tissues of the eye), Mean ([1]; 6 H after i.v. administration): 12.76 % ID/g | Concentration of radioactivity, B 16 (tumour), Mean ([1]; 24 H after i.v. administration): 6.97 % ID/g | Concentration of radioactivity, Ic (intestinal contents), Mean ([1]; 24 H after i.v. administration): 3.03 % ID/g | Concentration of radioactivity, Sc (stomach contents), Mean ([1]; 24 H after i.v. administration): 3.10 % ID/g | Concentration of radioactivity, uvea (pigmented tissues of the eye), Mean ([1]; 24 H after i.v. administration): 12.28 % ID/g | Concentration of radioactivity, B 16 (tumour), Mean ([1]; 72 H after i.v. administration): 1.52 % ID/g | Concentration of radioactivity, uvea (pigmented tissues of the eye), Mean ([1]; 72 H after i.v. administration): 7.84 % ID/g | Effective period (tumour): 21.4 h | Biological period (tumour): 24.0 hours | Faecal elimination 0-72 hours (Faeces) [2]: 26.7% | Urinary and faecal elimination 0-72 hours (Total) [2]: 70.6% | Urinary elimination 0-72 hours (Urine) [2]: 43.7%

CCN(CC)CCNC(=O)c1ccc(I)nc1 [compound 7, N-(2-diethylaminoethyl)-6-iodonicotinamide dihydrochloride]
Concentration of radioactivity, B 16 (tumour), Mean ([1]; 1 H after i.v. administration): 15.49 % ID/g | Concentration of radioactivity, GB (gall bladder), Mean ([1]; 1 H after i.v. administration): 8.68 % ID/g | Concentration of radioactivity, Ic (intestinal contents), Mean ([1]; 1 H after i.v. administration): 13.44 % ID/g | Concentration of radioactivity, SV (seminal vesicles), Mean ([1]; 1 H after i.v. administration): 6.79 % ID/g | Concentration of radioactivity, Sc (stomach contents), Mean ([1]; 1 H after i.v. administration): 34.80 % ID/g | Concentration of radioactivity, blood (measured in the heart cavity), Mean ([1]; 1 H after i.v. administration): 6.67 % ID/g | Concentration of radioactivity, brain, Mean ([1]; 1 H after i.v. administration): 0.64 % ID/g | Concentration of radioactivity, kidney, Mean ([1]; 1 H after i.v. administration): 6.08 % ID/g | Concentration of radioactivity, liver, Mean ([1]; 1 H after i.v. administration): 5.14 % ID/g | Concentration of radioactivity, lungs, Mean ([1]; 1 H after i.v. administration): 7.59 % ID/g | Concentration of radioactivity, muscle (skeletal muscle), Mean ([1]; 1 H after i.v. administration): 1.48 % ID/g | Concentration of radioactivity, pancreas, Mean ([1]; 1 H after i.v. administration): 3.94 % ID/g | Concentration of radioactivity, spleen, Mean ([1]; 1 H after i.v. administration): 5.44 % ID/g | Concentration of radioactivity, testicles, Mean ([1]; 1 H after i.v. administration): 4.11 % ID/g | Concentration of radioactivity, thyroid, Mean ([1]; 1 H after i.v. administration): 25.29 % ID/g | Concentration of radioactivity, uvea (pigmented tissues of the eye), Mean ([1]; 1 H after i.v. administration): 16.66 % ID/g | Concentration of radioactivity, B 16 (tumour), Mean ([1]; 3 H after i.v. administration): 9.27 % ID/g | Concentration of radioactivity, GB (gall bladder), Mean ([1]; 3 H after i.v. administration): 6.78 % ID/g | Concentration of radioactivity, Ic (intestinal contents), Mean ([1]; 3 H after i.v. administration): 4.94 % ID/g | Concentration of radioactivity, SV (seminal vesicles), Mean ([1]; 3 H after i.v. administration): 3.78 % ID/g | Concentration of radioactivity, Sc (stomach contents), Mean ([1]; 3 H after i.v. administration): 42.71 % ID/g | Concentration of radioactivity, blood (measured in the heart cavity), Mean ([1]; 3 H after i.v. administration): 4.22 % ID/g | Concentration of radioactivity, brain, Mean ([1]; 3 H after i.v. administration): 0.22 % ID/g | Concentration of radioactivity, kidney, Mean ([1]; 3 H after i.v. administration): 3.26 % ID/g | Concentration of radioactivity, liver, Mean ([1]; 3 H after i.v. administration): 3.01 % ID/g | Concentration of radioactivity, lungs, Mean ([1]; 3 H after i.v. administration): 3.96 % ID/g | Concentration of radioactivity, pancreas, Mean ([1]; 3 H after i.v. administration): 2.53 % ID/g | Concentration of radioactivity, spleen, Mean ([1]; 3 H after i.v. administration): 2.68 % ID/g | Concentration of radioactivity, testicles, Mean ([1]; 3 H after i.v. administration): 2.43 % ID/g | Concentration of radioactivity, thyroid, Mean ([1]; 3 H after i.v. administration): 59.09 % ID/g | Concentration of radioactivity, uvea (pigmented tissues of the eye), Mean ([1]; 3 H after i.v. administration): 12.69 % ID/g | Concentration of radioactivity, B 16 (tumour), Mean ([1]; 6 H after i.v. administration): 6.97 % ID/g | Concentration of radioactivity, GB (gall bladder), Mean ([1]; 6 H after i.v. administration): 4.90 % ID/g | Concentration of radioactivity, Ic (intestinal contents), Mean ([1]; 6 H after i.v. administration): 2.98 % ID/g | Concentration of radioactivity, SV (seminal vesicles), Mean ([1]; 6 H after i.v. administration): 3.55 % ID/g | Concentration of radioactivity, Sc (stomach contents), Mean ([1]; 6 H after i.v. administration): 50.21 % ID/g | Concentration of radioactivity, blood (measured in the heart cavity), Mean ([1]; 6 H after i.v. administration): 3.71 % ID/g | Concentration of radioactivity, brain, Mean ([1]; 6 H after i.v. administration): 0.12 % ID/g | Concentration of radioactivity, kidney, Mean ([1]; 6 H after i.v. administration): 3.05 % ID/g | Concentration of radioactivity, liver, Mean ([1]; 6 H after i.v. administration): 2.09 % ID/g | Concentration of radioactivity, lungs, Mean ([1]; 6 H after i.v. administration): 3.21 % ID/g | Concentration of radioactivity, muscle (skeletal muscle), Mean ([1]; 6 H after i.v. administration): 0.53 % ID/g | Concentration of radioactivity, pancreas, Mean ([1]; 6 H after i.v. administration): 2.27 % ID/g | Concentration of radioactivity, spleen, Mean ([1]; 6 H after i.v. administration): 2.35 % ID/g | Concentration of radioactivity, testicles, Mean ([1]; 6 H after i.v. administration): 2.01 % ID/g | Concentration of radioactivity, thyroid, Mean ([1]; 6 H after i.v. administration): 7.92 % ID/g | Concentration of radioactivity, uvea (pigmented tissues of the eye), Mean ([1]; 6 H after i.v. administration): 11.50 % ID/g | Concentration of radioactivity, B 16 (tumour), Mean ([1]; 24 H after i.v. administration): 2.69 % ID/g | Concentration of radioactivity, Sc (stomach contents), Mean ([1]; 24 H after i.v. administration): 1.46 % ID/g | Concentration of radioactivity, thyroid, Mean ([1]; 24 H after i.v. administration): 111.30 % ID/g | Concentration of radioactivity, uvea (pigmented tissues of the eye), Mean ([1]; 24 H after i.v. administration): 6.07 % ID/g | Concentration of radioactivity, B 16 (tumour), Mean ([1]; 72 H after i.v. administration): 0.87 % ID/g | Concentration of radioactivity, kidney, Mean ([1]; 72 H after i.v. administration): 1.09 % ID/g | Concentration of radioactivity, thyroid, Mean ([1]; 72 H after i.v. administration): 178.80 % ID/g | Concentration of radioactivity, uvea (pigmented tissues of the eye), Mean ([1]; 72 H after i.v. administration): 2.54 % ID/g | Effective period (tumour): 17.3 h | Biological period (tumour): 19.0 hours | Faecal elimination 0-72 hours (Faeces) [2]: 5.3% | Urinary and faecal elimination 0-72 hours (Total) [2]: 72.6% | Urinary elimination 0-72 hours (Urine) [2]: 67.3% | elimination route (in words) ([2]; urinary versus faecal, 0-72 hours): predominantly in the urine
